Results: the NIST ThermoML archive (doi:10.1021/je050060q)

Settings: Liquid; for mass density: Pycnometric method

CCCCCCCCCCCCCCCC [hexadecane]
Settings	mass density [kg/m3]	speed of sound [m/s]
293.15 K	773.38	1357
298.15 K	769.97	1338
303.15 K	766.55	–
308.15 K	763.12	1301
313.15 K	759.68	1283
318.15 K	756.24	1265
323.15 K	752.79	1246
328.15 K	749.33	1228
333.15 K	745.86	1211
338.15 K	742.39	1193
343.15 K	738.91	1176
348.15 K	735.42	1158
353.15 K	731.93	1141
358.15 K	728.43	1124
363.15 K	724.92	1107
368.15 K	721.4	1090
373.15 K	717.88	1074

CCCCCC [hexane]
Settings	mass density [kg/m3]	speed of sound [m/s]
293.15 K	659.44	1098
298.15 K	654.93	1076
303.15 K	650.36	1054
308.15 K	645.74	1032
313.15 K	641.08	1010
318.15 K	636.37	988
323.15 K	631.61	966
328.15 K	626.81	944
333.15 K	621.95	921
338.15 K	–	900
343.15 K	–	878
348.15 K	–	856
353.15 K	–	834
358.15 K	–	812
363.15 K	–	790
368.15 K	–	768
373.15 K	–	747
